We go through 8 compounds from US20240140986A1, “SYNTHETIC URSOLIC ACID DERIVATIVES AND METHODS OF USE THEREOF” (REATA PHARMACEUTICALS, INC., priority 2021, published 2024).

A word on the IC50: it is the concentration that inhibits the measured activity by half.

Where two headings read alike, the source gives them in different places.

Experiment [1] deals with IFNγ-induced NO production in RAW 264.7 cells. The experiment in a line: Nitric Oxide Suppression Assay (IFNγ-induced NO, Griess nitrite readout). Type of experiment: cell-based, mouse. The conditions noted are these: for IC50: Mus musculus, read-out: Avg NO IC50 (nM) (Mean ± SD); for Avg NO IC50 Relative to RTA402 (fold): Table 2, ratio to RTA402. In a few lines: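 Nitrite, a surrogate for NO, was measured by Griess reagent (525 nm) and quantified from standards by linear regression, expressed as percent of DMSO plus IFNγ control to give IC50. RAW 264.7 cells had 2 h compound pretreatment, then 24 h with 20 ng/mL IFNγ; WST-1 checked viability.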

The subject of experiment [2] is Nrf2 / ARE-dependent luciferase in AREc32 reporter cell line. The experiment in a line: AREc32 luciferase reporter activation (Nrf2 induction). Type of experiment: cell-based, human. The conditions noted are these: for EC (2-fold): Homo sapiens, Arec32; for Relative Avg AREc32 EC2X Relative to RTA402 (fold): ratio to RTA402. In a few lines:
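EC2X is the concentration raising luminescence 2-fold above DMSO-treated cells, from a nonlinear-regression dose–response fit. Compounds (0.03–1000 nM) were applied for nineteen hours, starting one day after seeding 20,000 reporter cells per well. Luciferase was read with One-Glo reagent.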
A general note: In a reporter assay the amount or activity of a reporter protein is the signal.

Setting [3] is: RAW264.7, Table 2, RAW 264.7 cells, 2 h pretreatment, 20 ng/mL interferon gamma 24 h.
[4] abbreviates: RAW264.7, Table 3, ursolic acid derivatives.
Where [5] appears, read: Table 2, concentration increasing luminescence 2-fold above vehicle, 19 h treatment, read-out: Avg AREc32 EC2X (nM) (Mean ± SD).
[6] abbreviates: Table 3, ursolic acid derivatives, read-out: Avg ARE EC-2X (nM) (Mean ± SD).

For `C[C@@H]1[C@H]2[C@H]3C(=O)C=C4[C@@]5(C)C=C(C#N)C(=O)C(C)(C)[C@@H]5CC[C@@]4(C)[C@]3(C)CC[C@@]2(CN2CCOC2)CC[C@H]1C` [Compound T42], the IC50 in experiment [1] (setting [3]) and in experiment [1] (setting [4]) was 38.2 ± 10 nM throughout. Besides, in experiment [1], the “Avg NO IC50 Relative to RTA402 (fold)” value was 14.80 ± 6.91 fold. Moreover, the EC (2-fold) in experiment [2] (setting [5]) and in experiment [2] (setting [6]) was 26.3 ± 6 nM throughout. For the same compound, in experiment [2] (Table 2), the “Relative Avg AREc32 EC2X Relative to RTA402 (fold)” value was 2.43 ± 0.39 fold.

In the case of `CC(=O)OCCNC[C@]12CC[C@@H](C)[C@H](C)[C@H]1[C@H]1C(=O)C=C3[C@@]4(C)C=C(C#N)C(=O)C(C)(C)[C@@H]4CC[C@@]3(C)[C@]1(C)CC2` [Compound T43], in experiment [1] (setting [3]), the IC50 came to 15.9 ± 7 nM. Further, the “Avg NO IC50 Relative to RTA402 (fold)” value in experiment [1] worked out at 5.93 ± 3.56 fold. The EC (2-fold) in experiment [2] (setting [5]) stood at 10.1 ± 1 nM. Also, in experiment [2] (Table 2), the “Relative Avg AREc32 EC2X Relative to RTA402 (fold)” value is on record as 0.8 ± 0.1 fold.

With `C[C@@H]1[C@H]2[C@H]3C(=O)C=C4[C@@]5(C)C=C(C#N)C(=O)C(C)(C)[C@@H]5CC[C@@]4(C)[C@]3(C)CC[C@@]2(CN2CCN(C)C2=O)CC[C@H]1C` [Compound T44], the figures for the IC50 in experiment [1] (setting [3]) and in experiment [1] (setting [4]) were 5.53 ± 1.8 nM and 5.5 ± 1.8 nM, respectively. Further, the “Avg NO IC50 Relative to RTA402 (fold)” value in experiment [1] amounted to 2.03 ± 0.67 fold. Also, the EC (2-fold) in experiment [2] (setting [5]) and in experiment [2] (setting [6]) was 5.73 ± 1.79 nM each time. For the same compound, in experiment [2] (Table 2), the “Relative Avg AREc32 EC2X Relative to RTA402 (fold)” value came out at 0.53 ± 0.13 fold.

On to `C[C@@H]1[C@H]2[C@H]3C(=O)C=C4[C@@]5(C)C=C(C#N)C(=O)C(C)(C)[C@@H]5CC[C@@]4(C)[C@]3(C)CC[C@@]2(CN2CCNC2=O)CC[C@H]1C` [Compound T45], for which the IC50 in experiment [1] (setting [3]) amounted to 8.79 ± 2.72 nM. Also, in experiment [1], the “Avg NO IC50 Relative to RTA402 (fold)” value is 3.22 ± 0.99 fold. Also, the EC (2-fold) in experiment [2] (setting [5]) came to 6.14 ± 1.47 nM. For the same compound, the “Relative Avg AREc32 EC2X Relative to RTA402 (fold)” value in experiment [2] (Table 2) is on record as 0.563 ± 0.065 fold.

Turning to `C[C@@H]1[C@H]2[C@H]3C(=O)C=C4[C@@]5(C)C=C(C#N)C(=O)C(C)(C)[C@@H]5CC[C@@]4(C)[C@]3(C)CC[C@@]2(Cn2cccn2)CC[C@H]1C` [Compound T46], the IC50 in experiment [1] (setting [3]) was determined as 32.6 ± 2.2 nM. Besides, the “Avg NO IC50 Relative to RTA402 (fold)” value in experiment [1] amounted to 8.4 ± 2.7 fold. The EC (2-fold) in experiment [2] (setting [5]) amounted to 24.1 ± 6.7 nM. Moreover, in experiment [2] (Table 2), the “Relative Avg AREc32 EC2X Relative to RTA402 (fold)” value was determined as 2.06 ± 0.26 fold.

Regarding `C[C@@H]1[C@H]2[C@H]3C(=O)C=C4[C@@]5(C)C=C(C#N)C(=O)C(C)(C)[C@@H]5CC[C@@]4(C)[C@]3(C)CC[C@@]2(Cn2cncn2)CC[C@H]1C` [Compound T47], the IC50 in experiment [1] (setting [3]) and in experiment [1] (setting [4]) was 8.19 ± 2 nM in each case. Also, in experiment [1], the “Avg NO IC50 Relative to RTA402 (fold)” value was found to be 2.70 ± 0.52 fold. Also, the results for the EC (2-fold) in experiment [2] (setting [5]) and in experiment [2] (setting [6]) were 7.08 ± 1.2 nM and 7.1 ± 1.2 nM, respectively. Further, the “Relative Avg AREc32 EC2X Relative to RTA402 (fold)” value in experiment [2] (Table 2) amounted to 0.573 ± 0.139 fold.

On to `C[C@H]1[C@H](C)CC[C@]2(Cn3cncn3)CC[C@]3(C)C(O)(C(=O)C=C4[C@@]5(C)C=C(C#N)C(=O)C(C)(C)[C@@H]5CC[C@]43C)[C@H]12` (stereo partly shown) [Compound T48], for which the IC50 in experiment [1] (setting [3]) is 13.8 ± 1.5 nM. Also, the “Avg NO IC50 Relative to RTA402 (fold)” value in experiment [1] was determined as 3.66 ± 1.49 fold. For the same compound, in experiment [2] (setting [5]), the EC (2-fold) amounted to 7.18 ± 1.2 nM. Further, in experiment [2] (Table 2), the “Relative Avg AREc32 EC2X Relative to RTA402 (fold)” value was determined as 0.602 ± 0.010 fold.

Take `Cc1cn(C[C@]23CC[C@@H](C)[C@H](C)[C@H]2[C@H]2C(=O)C=C4[C@@]5(C)C=C(C#N)C(=O)C(C)(C)[C@@H]5CC[C@@]4(C)[C@]2(C)CC3)nn1` [Compound T49]: the IC50 in experiment [1] (setting [3]) and in experiment [1] (setting [4]) was 11.5 ± 2.6 nM throughout. In addition, the “Avg NO IC50 Relative to RTA402 (fold)” value in experiment [1] worked out at 3.77 ± 0.33 fold. The EC (2-fold) in experiment [2] (setting [5]) and in experiment [2] (setting [6]) was 7.97 ± 0.73 nM in each case. Moreover, in experiment [2] (Table 2), the “Relative Avg AREc32 EC2X Relative to RTA402 (fold)” value is 0.643 ± 0.116 fold.
